US12435059B2, “AMP-activated protein kinase inhibitors and methods of making and using the same” (The Regents of the University of Colorado, priority 2019, dated 2025)

Tests used:
Experiment in all cases: biochemical
Type in all cases: binding
468 kinases [1] = target: 468 kinases (Homo sapiens, UniProt Q96Q40); conditions: PFTAIRE2; read-out: % Inhibition @ 100 nM
468 kinases [2] = target: 468 kinases (Homo sapiens, UniProt Q13164); conditions: ERK5; read-out: % Inhibition @ 100 nM
468 kinases [3] = target: 468 kinases (Homo sapiens, UniProt Q96L34); conditions: MARK4; read-out: % Inhibition @ 100 nM
468 kinases [4] = target: 468 kinases (Homo sapiens, UniProt P42681); conditions: TXK; read-out: % Inhibition @ 100 nM
468 kinases [5] = target: 468 kinases (Homo sapiens, UniProt Q9HAZ1); conditions: CLK4; read-out: % Inhibition @ 100 nM
468 kinases [6] = target: 468 kinases (Homo sapiens, UniProt Q00526); conditions: CDK3; read-out: % Inhibition @ 100 nM
468 kinases [7] = target: 468 kinases (Homo sapiens, UniProt P42336, E542K); conditions: PIK3CA(E542K); read-out: % Inhibition @ 100 nM
468 kinases [8] = target: 468 kinases (Homo sapiens, UniProt Q02750); conditions: MEK1; read-out: % Inhibition @ 100 nM
468 kinases [9] = target: 468 kinases (Homo sapiens, UniProt P07949, V804M); conditions: RET(V804M); read-out: % Inhibition @ 100 nM
468 kinases [10] = target: 468 kinases (Homo sapiens, UniProt P36896); conditions: ACVR1B; read-out: % Inhibition @ 100 nM
468 kinases [11] = target: 468 kinases (Homo sapiens, UniProt Q8NFD2); conditions: ANKK1; read-out: % Inhibition @ 100 nM
468 kinases [12] = target: 468 kinases (Homo sapiens, UniProt Q09013); conditions: DMPK; read-out: % Inhibition @ 100 nM
468 kinases [13] = target: 468 kinases (Homo sapiens, UniProt Q13705); conditions: ACVR2B; read-out: % Inhibition @ 100 nM
468 kinases [14] = target: 468 kinases (Homo sapiens, UniProt P20794); conditions: MAK; read-out: % Inhibition @ 100 nM
468 kinases [15] = target: 468 kinases (Homo sapiens, UniProt Q9NWZ3); conditions: TRAK4; read-out: % Inhibition @ 100 nM
468 kinases [16] = target: 468 kinases (Homo sapiens, UniProt Q15759); conditions: p38-beta; read-out: % Inhibition @ 100 nM
468 kinases [17] = target: 468 kinases (Homo sapiens, UniProt Q96D53); conditions: ADCK4; read-out: % Inhibition @ 100 nM
468 kinases [18] = target: 468 kinases (Homo sapiens, UniProt P24941); conditions: CDK2; read-out: % Inhibition @ 100 nM
468 kinases [19] = target: 468 kinases (Homo sapiens, UniProt Q6DT37); conditions: DMPK2; read-out: % Inhibition @ 100 nM
468 kinases [20] = target: 468 kinases (Homo sapiens, UniProt P42336, Q546K); conditions: PIK3CA(Q546K); read-out: % Inhibition @ 100 nM
468 kinases [21] = target: 468 kinases (Homo sapiens, UniProt Q9UPZ9); conditions: ICK; read-out: % Inhibition @ 100 nM
468 kinases [22] = target: 468 kinases (Homo sapiens, UniProt Q8N5S9); conditions: CAMKK1; read-out: % Inhibition @ 100 nM
468 kinases [23] = target: 468 kinases (Homo sapiens, UniProt O00444); conditions: PLK4; read-out: % Inhibition @ 100 nM
468 kinases [24] = target: 468 kinases (Homo sapiens, UniProt P08581, M1250T); conditions: MET(M1250T); read-out: % Inhibition @ 100 nM
468 kinases [25] = target: 468 kinases (Homo sapiens, UniProt Q05655); conditions: PRKCD; read-out: % Inhibition @ 100 nM
468 kinases [26] = target: 468 kinases (Homo sapiens, UniProt P00533, L858R); conditions: EGFR(L858R); read-out: % Inhibition @ 100 nM
468 kinases [27] = target: 468 kinases (Homo sapiens, UniProt Q9BWU1); conditions: CDK11; read-out: % Inhibition @ 100 nM
468 kinases [28] = target: 468 kinases (Homo sapiens, UniProt Q86Z02); conditions: HIPK1; read-out: % Inhibition @ 100 nM
468 kinases [29] = target: 468 kinases (Homo sapiens, UniProt Q99759); conditions: MAP3K3; read-out: % Inhibition @ 100 nM
468 kinases [30] = target: 468 kinases (Homo sapiens, UniProt Q05397); conditions: FAK; read-out: % Inhibition @ 100 nM
468 kinases [31] = target: 468 kinases (Homo sapiens, UniProt P42685); conditions: FRK; read-out: % Inhibition @ 100 nM
468 kinases [32] = target: 468 kinases (Homo sapiens, UniProt P36888, R834Q); conditions: FLT3(R834Q); read-out: % Inhibition @ 100 nM
468 kinases [33] = target: 468 kinases (Homo sapiens, UniProt Q52WX2); conditions: SBK1; read-out: % Inhibition @ 100 nM

**Q.** Which results are given for `CCN(CC)CCNC(=O)c1c(C)[nH]c(/C=C2\C(=O)Nc3ccc(CCC(N)=O)cc32)c1C` [Compound No. 16, (Z)-5-((5-(3-Amino-3-oxopropyl)-2-oxoindolin-3-ylidene)methyl)-N-(2-(diethylamino)ethyl)-2,4-dimethyl-1H-pyrrole-3-carboxamide]?
**A.** inhibition at 0.1 µM (468 kinases [1]): 0%; inhibition at 0.1 µM (468 kinases [2]): 100%; inhibition at 0.1 µM (468 kinases [3]): 12%; inhibition at 0.1 µM (468 kinases [4]): 16%; inhibition at 0.1 µM (468 kinases [5]): 96.2%; inhibition at 0.1 µM (468 kinases [6]): 19%; inhibition at 0.1 µM (468 kinases [7]): 26%; inhibition at 0.1 µM (468 kinases [8]): 56%; inhibition at 0.1 µM (468 kinases [9]): 99.3%; inhibition at 0.1 µM (468 kinases [10]): 0%; inhibition at 0.1 µM (468 kinases [11]): 66%; inhibition at 0.1 µM (468 kinases [12]): 11%; inhibition at 0.1 µM (468 kinases [13]): 12%; inhibition at 0.1 µM (468 kinases [14]): 4%; inhibition at 0.1 µM (468 kinases [15]): 68%; inhibition at 0.1 µM (468 kinases [16]): 0%; inhibition at 0.1 µM (468 kinases [17]): 0%; inhibition at 0.1 µM (468 kinases [18]): 7%; inhibition at 0.1 µM (468 kinases [19]): 20%; inhibition at 0.1 µM (468 kinases [20]): 3%; inhibition at 0.1 µM (468 kinases [21]): 88%; inhibition at 0.1 µM (468 kinases [22]): 28%; inhibition at 0.1 µM (468 kinases [23]): 57%; inhibition at 0.1 µM (468 kinases [24]): 6%; inhibition at 0.1 µM (468 kinases [25]): 9%; inhibition at 0.1 µM (468 kinases [26]): 32%; inhibition at 0.1 µM (468 kinases [27]): 3%; inhibition at 0.1 µM (468 kinases [28]): 92.6%; inhibition at 0.1 µM (468 kinases [29]): 48%; inhibition at 0.1 µM (468 kinases [30]): 100%; inhibition at 0.1 µM (468 kinases [31]): 38%; inhibition at 0.1 µM (468 kinases [32]): 55%; inhibition at 0.1 µM (468 kinases [33]): 58%

**Q.** What does the source list for `CCN(CC)CCNC(=O)c1c(C)[nH]c(/C=C2\C(=O)Nc3ccc(CCO)cc32)c1C` [Compound No. 10, (Z)—N-(2-(Diethylamino)ethyl)-5-((5-(2-hydroxyethyl)-2-oxoindolin-3-ylidene)methyl)-2,4-dimethyl-1H-pyrrole-3-carboxamide]?
**A.** inhibition at 0.1 µM (468 kinases [1]): 0%; inhibition at 0.1 µM (468 kinases [2]): 6%; inhibition at 0.1 µM (468 kinases [3]): 41%; inhibition at 0.1 µM (468 kinases [4]): 10%; inhibition at 0.1 µM (468 kinases [5]): 95.5%; inhibition at 0.1 µM (468 kinases [6]): 0%; inhibition at 0.1 µM (468 kinases [7]): 10%; inhibition at 0.1 µM (468 kinases [8]): 64%; inhibition at 0.1 µM (468 kinases [9]): 86%; inhibition at 0.1 µM (468 kinases [10]): 0%; inhibition at 0.1 µM (468 kinases [11]): 53%; inhibition at 0.1 µM (468 kinases [12]): 0%; inhibition at 0.1 µM (468 kinases [13]): 1%; inhibition at 0.1 µM (468 kinases [14]): 0%; inhibition at 0.1 µM (468 kinases [15]): 68%; inhibition at 0.1 µM (468 kinases [16]): 80%; inhibition at 0.1 µM (468 kinases [17]): 0%; inhibition at 0.1 µM (468 kinases [18]): 0%; inhibition at 0.1 µM (468 kinases [19]): 0%; inhibition at 0.1 µM (468 kinases [20]): 0%; inhibition at 0.1 µM (468 kinases [21]): 0%; inhibition at 0.1 µM (468 kinases [22]): 15%; inhibition at 0.1 µM (468 kinases [23]): 0%; inhibition at 0.1 µM (468 kinases [24]): 0%; inhibition at 0.1 µM (468 kinases [25]): 16%; inhibition at 0.1 µM (468 kinases [26]): 0%; inhibition at 0.1 µM (468 kinases [27]): 12%; inhibition at 0.1 µM (468 kinases [28]): 56%; inhibition at 0.1 µM (468 kinases [29]): 59%; inhibition at 0.1 µM (468 kinases [30]): 8%; inhibition at 0.1 µM (468 kinases [31]): 0%; inhibition at 0.1 µM (468 kinases [32]): 56%; inhibition at 0.1 µM (468 kinases [33]): 40%
